Laboratory results as given in US20120021434A1, “METHOD FOR TREATING B CELL REGULATED AUTOIMMUNE DISORDERS” (Synta Pharmaceuticals Corp., priority 2005, published 2012).

Columns and labels:
Format in all cases: cell-based
p65 = test: Western blot of THP-1 nuclear extracts: p65; settings: IFN-γ plus LPS or IFN-γ plus SAC
Protocol: The THP-1 cell, Jurkat cell and RAW264.7 cell line were obtained from American Type Culture Collection (Manassas, Va.). The THP-1 Jurkat cells were cultured in RPMI 1640 (ATCC, Manassas, Va.), supplemented with 10% FCS (ATCC, Manassas, Va.), and 1% penicillin/Streptomycin (Gibco-BRL, New York, N.Y.). The RAW264.7 cells were cultured in DMEM (ATCC, Manassas, Va.) supplemented with 10% FCS (ATCC, Manassas, Va.), and 1% penicillin/Streptomycin (Gibco-BRL, New York, N.Y.). The cells were stimulated with human or murine recombinant IFNγ (100 ng/ml) for 10 h followed by LPS (1 μg/ml) or SAC (0.025%) CpG ([…]) in the presence or absence of Compound 50 at different concentrations for an additional incubation.
THP-1 cells were suspended in 20 volumes of buffer A containing 10 mM KCl, 10 mM HEPES (pH 7.9), 1 mM MgCl2, 1 mM dithiothreitol (DTT), 0.1% Nonidet p40 (NP-40), and 0.5 mM phenylmethylsulfonyl fluoride (PMSF) and homogenized and centrifuged at 10,000 rpm at 4C afor 5 min. […]
Of the transcription factors that have been analyzed, two factors, ICSBP and c-Rel, seem to be affected by Compound 4/Compound 50 treatment. […]

[1] = system: IL-12 promoter (p40 expression); test: IL-12 promoter-Luc reporter with ICSBP over-expression; settings: co-transfection of ICSBP construct with IL-12 promoter-Luc reporter
From the text: ICSBP, whose expression was reduced by Compound 50, was over-expressed using co-transfection with the IL-12 promoter-Luc report system. The over-expression construct of ICSBP was generated by PCR from cDNA of human PBMC using primers as follow: ICSBP-exp-F: 5′-[…]-3′ (SEQ ID NO:1) and ICSBP-exp-R: 5′-[…]-3′ (SEQ ID NO:2), the resulting PCR products was ligated to pCI vector (Promega).

c-Rel = target: T1, c-Rel (Mus musculus, UniProt P15307); test: BD TransFactor assay of c-Rel DNA-binding activity in nuclear extracts of RAW 264.7 cells; settings: LPS/IFNγ, 1000 nM, 30 min pre-treatment, 3 hrs
T1 construct: nuclear extracts from RAW cells stimulated with LPS/IFNγ; endogenous in cells; host or cells: RAW264.7
T1 sequence (P15307 whole entry): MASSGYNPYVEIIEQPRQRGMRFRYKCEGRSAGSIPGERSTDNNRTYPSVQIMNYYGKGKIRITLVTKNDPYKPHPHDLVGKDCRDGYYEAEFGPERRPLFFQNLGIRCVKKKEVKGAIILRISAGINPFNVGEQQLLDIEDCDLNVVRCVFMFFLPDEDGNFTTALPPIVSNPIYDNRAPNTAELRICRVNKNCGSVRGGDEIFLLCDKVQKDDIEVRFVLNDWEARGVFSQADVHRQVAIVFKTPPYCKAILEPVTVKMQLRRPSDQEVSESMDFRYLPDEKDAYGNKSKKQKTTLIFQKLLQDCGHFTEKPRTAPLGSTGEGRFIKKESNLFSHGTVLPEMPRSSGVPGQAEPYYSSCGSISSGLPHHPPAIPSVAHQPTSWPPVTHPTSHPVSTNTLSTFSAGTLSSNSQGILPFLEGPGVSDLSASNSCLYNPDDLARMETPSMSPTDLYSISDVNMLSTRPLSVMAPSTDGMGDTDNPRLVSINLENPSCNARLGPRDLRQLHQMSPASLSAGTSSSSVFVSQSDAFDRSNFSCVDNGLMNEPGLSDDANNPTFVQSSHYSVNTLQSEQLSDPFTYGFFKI
Protocol: In this study, we examined the effect of Compound 50 on the DNA-binding activity of nuclear c-Rel. The BD transfactor assay (a non-radioactive version of a super-shift assay) was used to measure the DNA-binding activity of c-Rel. In this assay, nuclear extracts are added to biotinylated double-stranded oligonucleotides containing the NF-κB binding site bound to a streptavidin 96-well plate. Detection of the transcription factor-DNA complex is performed with a specific primary antibody for c-Rel. The 96-well format allows for simultaneous measurement of multiple conditions and proteins using HRP-conjugated secondary antibodies whose enzymatic product can be measured using a luminometer. The level of c-Rel DNA-binding activity increased 40-fold (relative to DMSO control) in nuclear extracts from RAW cells stimulated with LPS/IFNγ.
Methods: 20×10^6 Raw 264.7 cells were treated with either DMSO, LPS/IFNγ, or LPS/IFNγ/Compound 50. (LPS conc. 1 ug/ml f.c.; mouse IFNγ mouse 100 U/ml f.c, Compound 501 uM f.c). (LPS: Sigma Cat # L2654. Mouse IFNγ; Cat # R+D 485-MICF). […]
After measurement of protein concentration using BioRad assay, the nuclear extract was used in a Chemiluminescent NF-κB TransFactor Kit (BD) according to the user manual. […] Finally, amount of bound antibody to the plate was detected by incubation with chemiluminescent substrate and subsequent detection with a luminometer. […]

**Q.** `Cc1cccc(/C=N/Nc2cc(N3CCOCC3)nc(OCCc3ccccn3)n2)c1` [Compound 50, N-(3-Methyl-benzylidene)-N′-[6-morpholin-4-yl-2-(2-pyridin-2-yl-ethoxy)-pyrimidin-4-yl]-hydrazine] was tested. Which “nuclear p65 protein” value (p65) did it give?
**A.** Its value is “increased”.

**Q.** What about the “inhibition of p40 expression under ICSBP over-expression” value [1] of the same compound?
**A.** Its value is “decreased the inhibition”.

**Q.** What about the “reduction in the level of c-Rel DNA-binding activity” value (c-Rel) of the same compound?
**A.** Its value is 40%.
